Assay results from ChEMBL document CHEMBL1147637, “Synthesis and biological activity of selective azasugar-based TACE inhibitors” (Bioorg Med Chem Lett, 2004).

Tests used:
Interstitial collagenase = target: T1, Interstitial collagenase (Homo sapiens, UniProt P03956); test: Inhibition of recombinant human matrix metalloprotease-1
T1 sequence (P03956 whole entry): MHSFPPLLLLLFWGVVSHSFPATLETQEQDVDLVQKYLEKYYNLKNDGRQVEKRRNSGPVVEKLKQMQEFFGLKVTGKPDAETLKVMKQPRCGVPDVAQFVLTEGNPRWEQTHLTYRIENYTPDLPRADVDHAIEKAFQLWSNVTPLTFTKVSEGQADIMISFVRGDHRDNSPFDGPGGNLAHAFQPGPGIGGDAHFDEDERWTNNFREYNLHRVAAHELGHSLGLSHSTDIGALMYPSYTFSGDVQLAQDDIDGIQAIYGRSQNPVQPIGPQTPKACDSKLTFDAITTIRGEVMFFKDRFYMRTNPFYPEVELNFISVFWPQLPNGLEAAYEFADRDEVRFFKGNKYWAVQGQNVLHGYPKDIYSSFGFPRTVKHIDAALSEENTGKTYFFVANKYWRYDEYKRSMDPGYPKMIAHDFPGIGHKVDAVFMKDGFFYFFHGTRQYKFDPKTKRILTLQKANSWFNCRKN

[1] = target: Disintegrin and metalloproteinase domain-containing protein 17 (Homo sapiens, UniProt P78536); test: Inhibition of recombinant human TNF-alpha converting enzyme
Disintegrin and metalloproteinase domain-containing protein 17, sequence (P78536 whole entry, the tested form may be a part): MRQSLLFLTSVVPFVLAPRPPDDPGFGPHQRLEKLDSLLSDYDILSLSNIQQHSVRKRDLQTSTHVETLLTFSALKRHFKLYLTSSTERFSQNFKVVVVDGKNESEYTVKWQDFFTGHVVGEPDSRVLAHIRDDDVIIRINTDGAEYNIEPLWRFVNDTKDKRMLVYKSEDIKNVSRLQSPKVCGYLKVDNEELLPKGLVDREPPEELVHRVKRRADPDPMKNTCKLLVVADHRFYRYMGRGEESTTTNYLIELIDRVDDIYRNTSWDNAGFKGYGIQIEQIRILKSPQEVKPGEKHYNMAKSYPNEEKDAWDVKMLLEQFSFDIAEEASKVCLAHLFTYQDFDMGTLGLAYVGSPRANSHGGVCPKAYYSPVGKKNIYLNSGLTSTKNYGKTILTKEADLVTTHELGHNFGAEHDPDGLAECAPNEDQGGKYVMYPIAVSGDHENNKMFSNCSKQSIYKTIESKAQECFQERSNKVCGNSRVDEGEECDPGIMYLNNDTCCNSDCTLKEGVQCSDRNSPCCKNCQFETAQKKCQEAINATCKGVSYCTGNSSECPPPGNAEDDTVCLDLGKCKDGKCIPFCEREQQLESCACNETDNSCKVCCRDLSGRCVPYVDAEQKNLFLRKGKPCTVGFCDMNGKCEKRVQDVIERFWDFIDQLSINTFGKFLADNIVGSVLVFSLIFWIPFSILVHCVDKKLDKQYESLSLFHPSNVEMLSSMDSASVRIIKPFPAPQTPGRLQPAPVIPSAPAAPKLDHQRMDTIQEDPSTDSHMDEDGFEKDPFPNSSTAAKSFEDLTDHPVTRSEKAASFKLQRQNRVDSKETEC

Stromelysin-1 = Stromelysin-1 (Homo sapiens, UniProt P08254); test: Inhibition of recombinant human matrix metalloprotease-3
Stromelysin-1, sequence (P08254 whole entry): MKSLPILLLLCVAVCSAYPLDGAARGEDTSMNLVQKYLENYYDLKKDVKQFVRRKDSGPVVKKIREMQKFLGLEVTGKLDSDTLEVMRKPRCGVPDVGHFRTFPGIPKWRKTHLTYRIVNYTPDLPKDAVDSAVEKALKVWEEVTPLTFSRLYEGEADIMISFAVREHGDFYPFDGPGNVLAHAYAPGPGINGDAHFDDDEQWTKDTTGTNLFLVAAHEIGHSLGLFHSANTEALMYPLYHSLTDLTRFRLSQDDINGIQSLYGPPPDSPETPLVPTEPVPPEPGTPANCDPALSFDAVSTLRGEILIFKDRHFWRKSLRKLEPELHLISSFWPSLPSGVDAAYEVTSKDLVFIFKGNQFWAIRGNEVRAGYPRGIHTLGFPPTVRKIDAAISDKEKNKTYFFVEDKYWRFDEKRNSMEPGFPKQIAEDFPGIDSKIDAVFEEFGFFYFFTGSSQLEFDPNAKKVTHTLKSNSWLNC

[2] = target: Matrix metalloproteinase-9 (Homo sapiens, UniProt P14780); test: Inhibition of recombinant human matrix metalloprotease-9
Matrix metalloproteinase-9, sequence (P14780 whole entry): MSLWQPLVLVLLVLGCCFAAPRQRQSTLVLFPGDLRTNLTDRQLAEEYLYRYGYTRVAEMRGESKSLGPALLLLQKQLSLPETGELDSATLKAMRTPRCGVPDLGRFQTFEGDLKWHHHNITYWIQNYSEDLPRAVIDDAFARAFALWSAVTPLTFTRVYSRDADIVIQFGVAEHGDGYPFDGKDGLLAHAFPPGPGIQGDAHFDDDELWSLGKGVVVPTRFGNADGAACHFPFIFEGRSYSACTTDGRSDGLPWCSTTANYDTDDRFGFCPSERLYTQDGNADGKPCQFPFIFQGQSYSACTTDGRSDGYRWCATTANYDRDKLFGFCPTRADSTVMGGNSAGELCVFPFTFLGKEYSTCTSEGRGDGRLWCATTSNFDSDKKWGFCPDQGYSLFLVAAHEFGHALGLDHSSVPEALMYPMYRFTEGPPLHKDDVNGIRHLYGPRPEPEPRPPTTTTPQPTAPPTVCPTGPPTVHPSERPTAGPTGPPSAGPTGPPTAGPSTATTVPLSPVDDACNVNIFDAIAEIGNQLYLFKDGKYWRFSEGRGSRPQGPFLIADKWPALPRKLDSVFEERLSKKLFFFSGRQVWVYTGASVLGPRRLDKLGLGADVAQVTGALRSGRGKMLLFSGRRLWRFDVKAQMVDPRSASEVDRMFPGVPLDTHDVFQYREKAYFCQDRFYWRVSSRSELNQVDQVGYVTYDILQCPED

Row | SMILES | Ki (Interstitial collagenase) | Ki [1] | Ki (Stromelysin-1) | Ki [2]
1 | CC#CCOc1ccc(S(=O)(=O)N2C[C@H]3OC(C)(C)O[C@H]3[C@H](O)[C@@H]2C(=O)NO)cc1 | > 0.85 µM | 0.00057 µM | 0.0296 µM | 0.0778 µM
2 | CC#CCOc1ccc(S(=O)(=O)N2C[C@@H](O)[C@H]3OC(C)(C)O[C@@H]3[C@@H]2C(=O)NO)cc1 | > 0.85 µM | 0.00185 µM | 0.0581 µM | 0.118 µM
3 | CC#CCOc1ccc(S(=O)(=O)N2C[C@@H](O)[C@@H](O)[C@H](OC)[C@@H]2C(=O)NO)cc1 | 0.09 µM | 0.00185 µM | 0.00043 µM | 0.012 µM

More lines, now with the values ahead:

Row | Ki (Interstitial collagenase) | Ki [1] | Ki (Stromelysin-1) | Ki [2] | SMILES
4 | 0.552 µM | 0.00084 µM | 0.0115 µM | 0.0982 µM | CC#CCOc1ccc(S(=O)(=O)N2C[C@H]3OC(C)(C)O[C@H]3[C@H](OC)[C@@H]2C(=O)NO)cc1
5 | 0.128 µM | – | 0.0033 µM | 0.0142 µM | CC#CCOc1ccc(S(=O)(=O)N2C[C@@H](O)[C@@H](O)[C@H](O)[C@@H]2C(=O)NO)cc1
